Measurements: ChEMBL document CHEMBL1201862, “PubChem BioAssay data set” (2004)
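1) Cells in 96-well plates. 2) Compound, 48 h, 5 concentrations. 3) Linear interpolation between surrounding doses. 4) Unreached endpoint = highest concentration. GI50: concentration for 50% inhibition of growth.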 Activity calls are given as the source filed them. Cut-off read from the data, not from the text of the source: active = GI50 up to about 1.1 µM and inactive = higher.

Tests used:
Experiment in all cases: NCI-60 cell line screen, 48 h
SF-295 = tested on: SF-295
SK-MEL-28 = tested on: SK-MEL-28
HOP-62 = tested on: HOP-62
M14 = tested on: M14
HL-60 = tested on: HL-60
A549 = tested on: A549
OVCAR-4 = tested on: OVCAR-4
SN12C = tested on: SN12C
NCI-H23 = tested on: NCI-H23
HCT-116 = tested on: HCT-116
UO-31 = tested on: UO-31
SF-268 = tested on: SF-268
KM12 = tested on: KM12
OVCAR-5 = tested on: OVCAR-5
SR = tested on: SR
K562 = tested on: K562
ACHN = tested on: ACHN
COLO 205 = tested on: COLO 205
IGROV-1 = tested on: IGROV-1

SMILES	GI50 (SF-295)	GI50 (SK-MEL-28)	GI50 (HOP-62)	GI50 (M14)	GI50 (HL-60)	GI50 (A549)	GI50 (OVCAR-4)	GI50 (SN12C)	GI50 (NCI-H23)	GI50 (HCT-116)	GI50 (UO-31)	GI50 (SF-268)	GI50 (KM12)	GI50 (OVCAR-5)	GI50 (SR)	GI50 (K562)	GI50 (ACHN)	GI50 (COLO 205)	GI50 (IGROV-1)
CC(C)N(O)C(=N)c1ccccc1	> 100 µM (inactive)	> 100 µM (inactive)	> 100 µM (inactive)	> 100 µM (inactive)	> 100 µM (inactive)	> 100 µM (inactive)	> 100 µM (inactive)	> 100 µM (inactive)	> 100 µM (inactive)	> 100 µM (inactive)	> 100 µM (inactive)	> 100 µM (inactive)	> 100 µM (inactive)	> 100 µM (inactive)	–	–	–	–	–
O=c1c2cc3ccccc3n2c(=O)c2cc3ccccc3n12	> 100 µM (inactive)	> 100 µM (inactive)	–	> 100 µM (inactive)	> 100 µM (inactive)	> 100 µM (inactive)	> 100 µM (inactive)	> 100 µM (inactive)	> 100 µM (inactive)	> 100 µM (inactive)	> 100 µM (inactive)	> 100 µM (inactive)	89.5 µM (inactive)	> 100 µM (inactive)	> 100 µM (inactive)	> 100 µM (inactive)	> 100 µM (inactive)	–	–
CCOC(=O)/N=c1\ss/c(=N\C(=S)N(C)C)n1-c1ccccc1	29.7 µM (inactive)	1.82 µM (inactive)	42.5 µM (inactive)	> 10 µM (inactive)	> 10 µM (inactive)	1.11 µM (active)	2.16 µM (inactive)	> 10 µM (inactive)	67.5 µM (inactive)	7.62 µM (inactive)	> 10 µM (inactive)	2.06 µM (inactive)	8.63 µM (inactive)	> 100 µM (inactive)	3.72 µM (inactive)	19 µM (inactive)	52.1 µM (inactive)	3.19 µM (inactive)	4.11 µM (inactive)
O=C1/C(=C/c2ccccc2Cl)COc2ccccc21	19.1 µM (inactive)	16.3 µM (inactive)	16.9 µM (inactive)	–	17.6 µM (inactive)	22.6 µM (inactive)	–	–	19.1 µM (inactive)	4.75 µM (inactive)	15.1 µM (inactive)	17.5 µM (inactive)	10.8 µM (inactive)	17.8 µM (inactive)	–	3.93 µM (inactive)	19.1 µM (inactive)	21.7 µM (inactive)	18.1 µM (inactive)
O=[N+]([O-])c1cccc(C2=NN(c3ccccc3)C[N+](c3ccc(Br)cc3)=N2)c1	64.9 µM (inactive)	> 100 µM (inactive)	> 100 µM (inactive)	59 µM (inactive)	–	> 100 µM (inactive)	> 100 µM (inactive)	> 100 µM (inactive)	> 100 µM (inactive)	97.1 µM (inactive)	96.4 µM (inactive)	> 100 µM (inactive)	73.5 µM (inactive)	> 100 µM (inactive)	< 0.01 µM (active)	50.2 µM (inactive)	93.5 µM (inactive)	> 100 µM (inactive)	37.3 µM (inactive)
COc1ccc(/C=C2\SC(c3ccc(OC)cc3)N(NC(=O)Cc3ccccc3)C2=O)cc1 (configuration not stated)	> 100 µM (inactive)	> 100 µM (inactive)	> 100 µM (inactive)	> 100 µM (inactive)	94.8 µM (inactive)	> 100 µM (inactive)	> 100 µM (inactive)	> 100 µM (inactive)	> 100 µM (inactive)	> 100 µM (inactive)	> 100 µM (inactive)	> 100 µM (inactive)	> 100 µM (inactive)	> 100 µM (inactive)	> 100 µM (inactive)	88.1 µM (inactive)	> 100 µM (inactive)	> 100 µM (inactive)	> 100 µM (inactive)
Cc1nc2ccccc2c(=O)n1-c1ccccc1I	> 100 µM (inactive)	> 100 µM (inactive)	> 100 µM (inactive)	> 100 µM (inactive)	> 100 µM (inactive)	> 100 µM (inactive)	> 100 µM (inactive)	> 100 µM (inactive)	> 100 µM (inactive)	> 100 µM (inactive)	90.2 µM (inactive)	> 100 µM (inactive)	–	> 100 µM (inactive)	> 100 µM (inactive)	96.4 µM (inactive)	> 100 µM (inactive)	> 100 µM (inactive)	> 100 µM (inactive)
CCO[C@@H]1C2C=CC(C2)[C@H]1[N+](=O)[O-] (some centres not stated)	> 100 µM (inactive)	> 100 µM (inactive)	> 100 µM (inactive)	> 100 µM (inactive)	47.3 µM (inactive)	> 100 µM (inactive)	> 100 µM (inactive)	> 100 µM (inactive)	> 100 µM (inactive)	> 100 µM (inactive)	> 100 µM (inactive)	> 100 µM (inactive)	> 100 µM (inactive)	> 100 µM (inactive)	–	73.5 µM (inactive)	> 100 µM (inactive)	> 100 µM (inactive)	> 100 µM (inactive)
O=c1c2cc(Br)ccc2[nH]c(=S)n1-c1ccc(Br)cc1	45.5 µM (inactive)	> 100 µM (inactive)	67.6 µM (inactive)	–	> 100 µM (inactive)	> 100 µM (inactive)	76.4 µM (inactive)	75 µM (inactive)	> 100 µM (inactive)	89.7 µM (inactive)	> 100 µM (inactive)	> 100 µM (inactive)	> 100 µM (inactive)	–	> 100 µM (inactive)	> 100 µM (inactive)	> 100 µM (inactive)	> 100 µM (inactive)	> 100 µM (inactive)
c1cc(-c2cn[nH]c2)cc(-c2cn[nH]c2)c1	39.8 µM (inactive)	35.9 µM (inactive)	17.8 µM (inactive)	44.6 µM (inactive)	30.9 µM (inactive)	20.1 µM (inactive)	54 µM (inactive)	39.4 µM (inactive)	47 µM (inactive)	20.2 µM (inactive)	16 µM (inactive)	25.8 µM (inactive)	41 µM (inactive)	–	31.8 µM (inactive)	43 µM (inactive)	–	53.3 µM (inactive)	51.2 µM (inactive)
CC1(C)OC(=O)C(=C2CCC(C(=O)Nc3cccc(C(F)(F)F)c3)N2)C(=O)O1 (configuration not stated)	75.5 µM (inactive)	97.7 µM (inactive)	> 100 µM (inactive)	64 µM (inactive)	67.8 µM (inactive)	> 100 µM (inactive)	61.4 µM (inactive)	> 100 µM (inactive)	> 100 µM (inactive)	> 100 µM (inactive)	> 100 µM (inactive)	> 100 µM (inactive)	60.3 µM (inactive)	> 100 µM (inactive)	–	33.4 µM (inactive)	50.2 µM (inactive)	> 100 µM (inactive)	> 100 µM (inactive)
CCCC/C=C/C=C/C=C/CCCCCCCC(=O)OCC(COC(=O)CCCCCCC/C=C/C1C=CC(CCCC)C(C(=O)O)C1C(=O)O)OC(=O)CCCCCCC/C=C/C=C/C=C/CCCC.OCCNCO (configuration not stated)	17.8 µM (inactive)	18.3 µM (inactive)	18.6 µM (inactive)	15.4 µM (inactive)	21.9 µM (inactive)	18.8 µM (inactive)	17 µM (inactive)	20 µM (inactive)	19.4 µM (inactive)	17 µM (inactive)	20 µM (inactive)	17.5 µM (inactive)	18.7 µM (inactive)	20.2 µM (inactive)	–	19.5 µM (inactive)	19 µM (inactive)	15.8 µM (inactive)	19.8 µM (inactive)
COC(=O)C(=O)C(C#N)c1ccc(CC#N)cc1 (configuration not stated)	> 100 µM (inactive)	> 100 µM (inactive)	–	> 100 µM (inactive)	> 100 µM (inactive)	> 100 µM (inactive)	–	> 100 µM (inactive)	> 100 µM (inactive)	> 100 µM (inactive)	> 100 µM (inactive)	> 100 µM (inactive)	> 100 µM (inactive)	–	> 100 µM (inactive)	> 100 µM (inactive)	> 100 µM (inactive)	–	> 100 µM (inactive)
CCC(=O)Nc1nc2c(ncn2C2OC(COC(=O)CC)C(OC(=O)CC)C2OC(=O)CC)c(=O)[nH]1 (configuration not stated)	> 100 µM (inactive)	> 100 µM (inactive)	> 100 µM (inactive)	> 100 µM (inactive)	46.6 µM (inactive)	> 100 µM (inactive)	> 100 µM (inactive)	> 100 µM (inactive)	–	> 100 µM (inactive)	> 100 µM (inactive)	> 100 µM (inactive)	> 100 µM (inactive)	> 100 µM (inactive)	> 100 µM (inactive)	> 100 µM (inactive)	> 100 µM (inactive)	–	> 100 µM (inactive)
CS(=O)(=O)N(CCC#N)c1ccc(/C=C2\N=C(c3ccccc3Cl)OC2=O)cc1	> 100 µM (inactive)	> 100 µM (inactive)	> 100 µM (inactive)	> 100 µM (inactive)	> 100 µM (inactive)	> 100 µM (inactive)	–	> 100 µM (inactive)	> 100 µM (inactive)	> 100 µM (inactive)	> 100 µM (inactive)	> 100 µM (inactive)	> 100 µM (inactive)	> 100 µM (inactive)	–	> 100 µM (inactive)	> 100 µM (inactive)	> 100 µM (inactive)	> 100 µM (inactive)
O=P(c1ccccc1)(c1ccccc1)C1CC=C2CCCCCC2C1 (configuration not stated)	41.3 µM (inactive)	> 10 µM (inactive)	–	21.8 µM (inactive)	27.2 µM (inactive)	> 10 µM (inactive)	26.2 µM (inactive)	30.6 µM (inactive)	30.2 µM (inactive)	19.6 µM (inactive)	21.8 µM (inactive)	23.3 µM (inactive)	38.5 µM (inactive)	23.2 µM (inactive)	–	28.3 µM (inactive)	–	24.1 µM (inactive)	37.6 µM (inactive)
